Assay results: PubChem BioAssay AID624258 (Broad Institute, 2012)
The source made the active and inactive calls. The rule behind the calls is not given here.

System: S. cerevisiae SKN7-toxicity growth rescue, plate reader
Test: SKN7 mediated toxicity in Saccharomyces cerevisiae, growth rescue counterscreen, dose confirmation (AID 624258);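 note: growth read after three days of incubation at 30 °C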

SMILES	AC40
O=C1c2ccccc2NC(c2ccc(-c3ccc(C(F)(F)F)cc3)o2)N1O (stereo not drawn)	1.71 µM
CSC(=S)N/N=C/c1ccccc1	3.19 µM
CC(C)CN(C(=O)c1cccc(S(=O)(=O)N2CCN(Cc3ccccc3)CC2)c1)C1CCS(=O)(=O)C1 (stereo not drawn)	8.01 µM
O=C(Nc1cccc(-c2nc3ccccc3s2)c1)c1cccs1	1.34 µM
Clc1cccc(-c2noc3ncnc(Nc4ccc5c(c4)OCO5)c23)c1	7.06 µM
CCOC(=O)CSC1=NC(=O)/C(=C\c2ccc(Cl)cc2)S1	6.09 µM
COc1ccc(CNC(=O)c2c(C)oc3c2C(=O)c2ccccc2C3=O)cc1	8.26 µM
O=C(O)c1ccc(N/N=C/C2=C(N3CCOCC3)C(=C\c3ccccc3)/CC2)cc1	5.01 µM
CC/C(=N\Nc1ccc([N+](=O)[O-])cc1)c1ccccc1	1.62 µM
Cc1nn(CCC(N)=S)c2nc(-c3cccs3)cc(C(F)(F)F)c12	14.1 µM
COc1cc(/C=C2\SC(=S)N(NS(=O)(=O)c3ccc(C)cc3)C2=O)ccc1O	1.64 µM
O=c1[nH]cc(F)c(=O)[nH]1	9.32 µM
Cc1c2cnccc2c(C)c2c1oc1ccccc12	2.99 µM
O=c1c(=Nc2ccccc2O)c(=O)c2ccccc12	1.06 µM
CCCCCCCCCCOC(=O)Cn1c(COc2ccccc2)[n+](C)c2ccccc21	3.02 µM
O=C(Nc1cccnc1)c1ccc2ccccc2c1O	0.908 µM
CCOC(=O)c1ccc(N2C(=O)CC(N(C)CCc3ccc(OC)c(OC)c3)C2=O)cc1 (stereo not drawn)	4.82 µM
Cc1cccc(C)c1N=Nc1c(C)cc(O)cc1C	1.12 µM
O=C1Cc2ccccc2C(=O)N1CCc1ccccc1	10.5 µM
CC1Cc2ccccc2N1c1ncnc(N)c1[N+](=O)[O-] (stereo not drawn)	7.27 µM
Cc1cc(/C=C2\SC(=S)NC2=O)c(C)n1-c1cccc(O)c1	6.18 µM
COc1cc2c(cc1OC)C(C)N(C(=O)c1cc3c(=O)oc4ccc(C)cc4c3s1)CC2 (stereo not drawn)	> 19.5 µM (inactive)
CC(C)(C)n1nc(-c2ccc(Cl)cc2)c2c(N)ncnc21	12.6 µM
CCNc1nc(N)nc(-c2cc(Cl)ccc2O)n1	2.17 µM

SMILES	AC40
Cc1nnc(N=c2ssnc2Cl)o1	0.832 µM
Oc1ccc(-c2nc3ccccc3s2)c(O)c1	0.726 µM
O=c1c2c(-c3ccc(Cl)cc3)csc2ncn1/N=C/c1cccc([N+](=O)[O-])c1O	1.23 µM
N=c1c2c(-c3ccccc3)c(-c3ccccc3)n(Cc3ccco3)c2ncn1CCCn1ccnc1	2.92 µM
CCc1ccc(NC(=O)CSc2ccc(-c3ccccn3)nn2)cc1	0.968 µM
O=C(O/N=C(\c1ccccc1)c1ccncc1)c1ccccc1Cl	9.26 µM
O=C1C=C(c2ccccc2)C(=O)N1Nc1ccccc1	1.15 µM
CCCC(=O)NC(c1ccccc1OC)c1ccc2cccnc2c1O (stereo not drawn)	1.2 µM
O=C(Nc1ccc(Cl)c(Cl)c1)C1CCCCC1	0.565 µM
C=CCN(CC=C)C(=S)NC(=O)c1ccc(OC)c(Br)c1	0.652 µM
Cc1ccc(C2(c3ccc(C)cc3)CC2C(=O)Nc2ccc([N+](=O)[O-])cc2O)cc1 (stereo not drawn)	6.78 µM
O=C(CSc1ccc(-c2ccccn2)nn1)NCc1ccccc1	7.08 µM
Cc1cc(Cl)ccc1OCC(=O)NCCCCc1ccccc1	8.43 µM
CC(C)CN=Cc1c(O)c([N+](=O)[O-])cc2oc3c(c12)CCCC3	1.25 µM
O=[N+]([O-])c1ccc(O)c(/C=N/Nc2ccccn2)c1	1.42 µM
Cc1cc(-c2ccccc2)n(-c2cc(N/N=C/c3ccccc3O)ncn2)n1	> 19.5 µM (inactive)
O=C(/C=C/c1ccccc1)c1cc(Br)ccc(=O)c1O	2.08 µM
c1ccc(Cn2cc(-c3cccnc3)cn2)cc1	1.46 µM
COc1ccc(S(=O)(=O)N(C(=O)c2ccncc2)c2ccc(OC(=O)c3ccncc3)cc2)cc1	1.88 µM
CCCc1cc(-c2n[nH]c(=S)n2-c2cccc(C)c2)cs1	17 µM
O=C(CSc1nc2ccccc2s1)N/N=C/c1cc([N+](=O)[O-])ccc1O	3.97 µM
COc1cc(C(=O)ON=C2C3CC4CC(C3)CC2C4)cc(OC)c1OC	1.79 µM
Cc1ccc(C(=O)Sc2cccccc2=O)cc1	0.322 µM
Cc1ccc(NC2(c3nnnn3-c3c(C)cccc3C)CCCCC2)cc1	> 19.5 µM (inactive)

SMILES	AC40
O=S(=O)(CCSc1nc2ccccc2s1)c1nc2ccccc2s1	2.43 µM
Cc1csc2nc(O)c(C(=O)NCCCc3ccccc3)c(=O)n12	0.801 µM
COc1cccc(NC=C2C(=O)OC3(CCCCC3)OC2=O)c1	5.08 µM
O/C(=C\c1nc2ccccc2nc1/C=C(\O)c1ccccc1)c1ccccc1	4.59 µM
Cc1ccc2oc(-c3ccccc3)c(C(=O)O)c(=O)c2c1	1.26 µM
COc1cc2c(c(OC)c1OC)-c1ccc(O)c(=O)cc1[C@@H](N)CC2	0.936 µM
Cc1ccccc1NC(=O)CSc1ccc(-c2ccccn2)nn1	7.17 µM
O=S(=O)(NCC1COc2ccccc2O1)c1ccc2ccccc2c1 (stereo not drawn)	8.68 µM
CC(C)(C)c1cc(CCC(=O)NNC(=S)NC(=O)c2ccccc2)cc(C(C)(C)C)c1O	6.31 µM
Cc1ccc(CNC(=O)C2COc3ccccc3O2)cc1 (stereo not drawn)	17.7 µM
O=C(CSc1nnc(-c2ccccc2O)n1Cc1ccccc1)NNC(=O)c1ccccc1O	6.84 µM
O=C1C(=C(I)I)c2ccccc2-c2ccccc21	2.07 µM
CC(C)(c1cc(Br)c(O)c(Br)c1)c1cc(Br)c(O)c(Br)c1	1.26 µM
O=c1c(Cl)c(Cl)cnn1Cc1nnc(-c2ccc(Cl)cc2)o1	7.97 µM
O=C(CCCNC(=O)c1ccc(Cl)cc1)OCc1cccc(Br)c1	> 19.5 µM (inactive)
C[C@H](O)[C@H]1CC[C@H]2[C@@H]3CCC4=CC(=O)CC[C@]4(C)[C@H]3CC[C@]12C	2.05 µM
Oc1cc(Nc2ccccc2)cc2cccnc12	3.81 µM
CC(C)n1cnc2c(NCc3ccccc3)cc(Cc3ccc(F)cc3)cc21	3.4 µM
Cc1ccccc1N1CCN(C2=NC(=O)/C(=C\c3cccs3)S2)CC1	4.83 µM
O=C(CSc1ccc(-c2ccccn2)nn1)c1ccccc1	1.22 µM
CCOc1ccc(-n2c(O)c(/C=N/NC(=O)C3COc4ccccc4O3)c3ccccc3c2=O)cc1 (stereo not drawn)	2.18 µM
O=C(CSc1ccc(-c2ccccn2)nn1)N1CCCc2ccccc21	4.75 µM
O=C(Nc1ccccc1N1CCOCC1)c1cc2c(s1)CCCCC2	7.06 µM
CNC(=S)Nc1ccc(C23CC4CC(CC(C4)C2)C3)cc1	2.47 µM

SMILES	AC40
S=C(NCCCc1ccccc1)Nc1ccccc1Cl	5.29 µM
CCCCC(=O)NC(c1ccc(OC)c(OC)c1)c1ccc2cccnc2c1O (stereo not drawn)	1 µM
O=C1CC(N2CCCCCC2)C(=O)N1c1ccc2c(c1)OCO2 (stereo not drawn)	6.75 µM
Cc1cc2[nH]c3c4ccccc4nc(C)c3c2cc1C	11.2 µM
O=C1/C(=C/c2cccs2)SC(=S)N1NS(=O)(=O)c1ccccc1	3.71 µM
O=C1c2ccccc2NC(c2ccc(-c3cccc([N+](=O)[O-])c3)o2)N1O (stereo not drawn)	4.74 µM
O=C1C=C(Nc2ccccc2O)c2ccccc2C1=O	12.6 µM
CCCOc1ccc(N2C(=O)CC(N3CCC(C(=O)OCC)CC3)C2=O)cc1 (stereo not drawn)	6.17 µM
CC(NC(=S)NC1CCC(C(C)(C)C)CC1)c1ccccc1 (stereo not drawn)	6.16 µM
CCOC(=O)C1=C(Cc2ccc(OC)cc2)C(=O)c2ccccc2C1=O	2.67 µM
Cc1cccc(N2CCN(C(=O)c3c(-c4ccccc4)noc3C)CC2)c1C	0.414 µM
O=[N+]([O-])c1cc2oc3c(c2c(C=NCc2ccccc2)c1O)CCCC3	1.38 µM
COc1ccc(-c2sc3ccccc3c2C#Cc2cncn2C)cc1	1.24 µM
N#C/C(=C\c1cccc(Oc2ccccc2)c1)C(=O)N1CCOCC1	8.47 µM
CCCOc1ccc(C(=O)NNC(=S)NC(=O)CC)cc1	1.48 µM
Oc1ccccc1N=Cc1ccc[nH]1	> 0.75 µM (inactive)
Cc1ccc(-c2nc3ccc(Cl)cc3c(=O)n2O)cc1	0.914 µM
Cc1cccc(C)c1NC(=O)c1nc(S(=O)(=O)Cc2ccccc2)ncc1Cl	7.57 µM
c1cncc(-c2nnc(-c3cccnc3)nn2)c1	8.28 µM
CCCC1CCC(c2ccc(/C(N)=N/O)cc2)CC1 (stereo not drawn)	0.476 µM
COC1=CC(=O)c2c(ccc3ncnc(N)c23)C1=O	10.1 µM
C[C@@]12C(=O)Nc3ccc(F)cc3C(=O)N1[C@H]1c3ccccc3OC[C@@H]1[C@@H]2c1ccccc1	11.5 µM
O=C(Oc1cc2oc(=O)cc(-c3ccccc3)c2cc1Cl)C1CCCCC1	8.04 µM
Cc1ccc(SCCNC(=S)Nc2ccc(C)c(C)c2)cc1	14.2 µM

SMILES	AC40
COc1cccc(CNC(=O)CSc2ccc(-c3ccccn3)nn2)c1	16.4 µM
Cc1cccc2sc(NNC(=O)c3ccc(S(=O)(=O)N4CC(C)CC(C)C4)cc3)nc12 (stereo not drawn)	0.736 µM
Cc1[nH]n(-c2ccccc2)c(=O)c1/C=N/Nc1nncc(-c2ccccc2)n1	1.11 µM
Cc1cc([N+](=O)[O-])c(NC2CCCCC2)c([N+](=O)[O-])c1	10.1 µM
O=C1c2ccccc2NC(c2ccc(-c3ccc(F)cc3)o2)N1O (stereo not drawn)	14 µM
Cc1ccc([C@@H]2CC=C(C(=O)O)[C@H](c3ccc(Br)cc3)N2S(=O)(=O)c2ccccc2C)cc1	5.39 µM
N#C/C(=C\Nc1ccccc1O)c1nc2ccccc2o1	1.12 µM
Cc1ccnc(NC(c2ccsc2)c2ccc3ccc(C)nc3c2O)c1 (stereo not drawn)	6.7 µM
Cc1noc2ncnc(SCc3ccc(C(F)(F)F)cc3)c12	0.965 µM
CN(C1=C(NC(=O)c2ccc(Cl)cc2)C(=O)c2ccccc2C1=O)c1ccccc1	4.87 µM
CC1CC(C)CC(C)C(O)C(C#N)=CC=CCC(C2CCCC2C(=O)O)OC(=O)CC(O)C(C)C1 (stereo not drawn)	10.3 µM
CC1(C(=O)OCC(=O)Nc2ccc3ccccc3c2)CC1(Cl)Cl (stereo not drawn)	17.6 µM
CCCNC(=O)c1ccc2c(=O)c(O)c(-c3ccc(F)cc3)[nH]c2c1	2.31 µM
Oc1c(C(Nc2cccc(C(F)(F)F)c2)c2cccnc2)ccc2cccnc12 (stereo not drawn)	2.73 µM
c1c[nH]c(CN2CCN(Cc3ncc[nH]3)CC2)n1	1.7 µM
CC(C)(C)C(=O)C(Oc1ccc(Cl)cc1)n1cncn1 (stereo not drawn)	2.02 µM
COc1cccc(-n2nc(C#N)c(Cl)cc2=O)c1	2.08 µM
N#C/C(=C\c1cccnc1)c1ccc([N+](=O)[O-])cc1	16.7 µM
O=S(=O)(c1cc(C(F)(F)F)ccc1Cl)N1CCN(c2ncnc3ccccc23)CC1	17.1 µM
COc1ccccc1C1CCN(c2cc(O)ccc2[N+](=O)[O-])CC1	2.83 µM
O=C1c2ccccc2C2=Nc3ccccc3SC(c3cccc(F)c3)C12 (stereo not drawn)	1.24 µM
Cc1ccc(Nc2c(-c3ccccc3O)nc3cnccn23)cc1	8.08 µM
